Test results from patent publication US20240116892A1, “HETEROCYCLIC AMIDE AND UREA COMPOUNDS AS JAK2 INHIBITORS” (Ajax Therapeutics, Inc., priority 2022, published 2024).

Molecular target: JAK2 (JH1 domain-catalytic, Y1007F, Y1008F) kinase (Homo sapiens (Human), UniProt O60674, Y1007F/Y1008F)
Assay: JAK2 JH1 Domain Binding Assay
Conditions: qPCR readout
In short: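 JH1 catalytic domain (Y1007F/Y1008F) expressed as NFkB DNA-binding-domain fusion in HEK293 cells, DNA-tagged. Competition with immobilized biotinylated ligand on streptavidin beads, 1 h at RT in PBS/Tween/BSA/DTT; bound kinase eluted with free ligand and quantified by qPCR.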

Chain of JAK2 (JH1 domain-catalytic, Y1007F, Y1008F) kinase (O60674 849-1124 Y1007F/Y1008F): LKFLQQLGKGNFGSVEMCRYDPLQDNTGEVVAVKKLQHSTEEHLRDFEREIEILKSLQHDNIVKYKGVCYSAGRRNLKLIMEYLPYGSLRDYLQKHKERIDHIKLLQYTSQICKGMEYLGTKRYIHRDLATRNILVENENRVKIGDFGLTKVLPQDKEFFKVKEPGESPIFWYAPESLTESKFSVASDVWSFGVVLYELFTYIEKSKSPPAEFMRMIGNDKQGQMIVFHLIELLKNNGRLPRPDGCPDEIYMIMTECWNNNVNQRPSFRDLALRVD

Kd [nM] | Structure (SMILES)
< 10 | Cc1n[nH]c2ncc(N3CCC(N(C)C(=O)Nc4cc(C(F)(F)F)cn(C)c4=O)CC3)cc12 [Example I-28, 1-methyl-1-(1-(3-methyl-1H-pyrazolo[3,4-b]pyridin-5-yl)piperidin-4-yl)-3-(1-methyl-2-oxo-5-(trifluoromethyl)-1,2-dihydropyridin-3-yl)urea]
< 10 | CN(C(=O)Nc1cc(C(F)(F)F)cn(C)c1=O)[C@@H]1CCN(c2cnc3[nH]ncc3c2)CC1(F)F [Example I-29-a, (R)-1-(3,3-difluoro-1-(1H-pyrazolo[3,4-b]pyridin-5-yl)piperidin-4-yl)-1-methyl-3-(1-methyl-2-oxo-5-(trifluoromethyl)-1,2-dihydropyridin-3-yl)urea]
< 10 | CN(C(=O)Nc1cc(C(F)(F)F)cn(C)c1=O)[C@H]1CCN(c2cnc3[nH]ncc3c2)CC1(F)F [Example I-29-b, (S)-1-(3,3-difluoro-1-(1H-pyrazolo[3,4-b]pyridin-5-yl)piperidin-4-yl)-1-methyl-3-(1-methyl-2-oxo-5-(trifluoromethyl)-1,2-dihydropyridin-3-yl)urea]
< 10 | Cc1c[nH]c2ncc(N3CCC(N(C)C(=O)Nc4cc(C(F)(F)F)cn(C)c4=O)CC3)nc12 [Example I-30, 1-methyl-3-(1-methyl-2-oxo-5-(trifluoromethyl)-1,2-dihydropyridin-3-yl)-1-(1-(7-methyl-5H-pyrrolo[2,3-b]pyrazin-2-yl)piperidin-4-yl)urea]
< 10 | Cc1cc2nc(N3CCC(N(C)C(=O)Nc4cc(C(F)(F)F)cn(C)c4=O)CC3)cnc2[nH]1 [Example I-31, 1-methyl-3-(1-methyl-2-oxo-5-(trifluoromethyl)-1,2-dihydropyridin-3-yl)-1-(1-(6-methyl-5H-pyrrolo[2,3-b]pyrazin-2-yl)piperidin-4-yl)urea]
10 to 50 | CN(C(=O)Nc1cc(C(F)(F)F)cn(C)c1=O)C1CCN(c2cnc3[nH]cnc3c2)CC1 [Example I-38, 1-(1-(3H-imidazo[4,5-b]pyridin-6-yl)piperidin-4-yl)-1-methyl-3-(1-methyl-2-oxo-5-(trifluoromethyl)-1,2-dihydropyridin-3-yl)urea]
< 10 | CN(C(=O)Nc1cc(C(F)(F)F)cn(C)c1=O)C1CCN(c2cnc3[nH]cc(F)c3n2)CC1 [Example I-39, 1-(1-(7-fluoro-5H-pyrrolo[2,3-b]pyrazin-2-yl)piperidin-4-yl)-1-methyl-3-(1-methyl-2-oxo-5-(trifluoromethyl)-1,2-dihydropyridin-3-yl)urea]
< 10 | CN(C(=O)Nc1cc(C(F)(F)F)cn(C)c1=O)C1CCN(c2cnc3[nH]cc(C4CC4)c3n2)CC1 [Example I-40, 1-(1-(7-cyclopropyl-5H-pyrrolo[2,3-b]pyrazin-2-yl)piperidin-4-yl)-1-methyl-3-(1-methyl-2-oxo-5-(trifluoromethyl)-1,2-dihydropyridin-3-yl)urea]
< 10 | CNc1ccnc2c(N3CCC(N(C)C(=O)Nc4cc(C(F)(F)F)cn(C)c4=O)CC3)cnn12 [Example I-42, 1-methyl-3-(1-methyl-2-oxo-5-(trifluoromethyl)-1,2-dihydropyridin-3-yl)-1-(1-(7-(methylamino)pyrazolo[1,5-a]pyrimidin-3-yl)piperidin-4-yl)urea]
10 to 50 | CN(C(=O)Nc1cc(C(F)(F)F)cn(C)c1=O)[C@@H]1C[C@@H]2C[C@H]1CN2c1cnc2[nH]ccc2n1 [Example I-43-a, 1-((1S,4S,5R)-2-(5H-pyrrolo[2,3-b]pyrazin-2-yl)-2-azabicyclo[2.2.1]heptan-5-yl)-1-methyl-3-(1-methyl-2-oxo-5-(trifluoromethyl)-1,2-dihydropyridin-3-yl)urea]
10 to 50 | CN(C(=O)Nc1cc(C(F)(F)F)cn(C)c1=O)[C@H]1C[C@H]2C[C@@H]1CN2c1cnc2[nH]ccc2n1 [Example I-43-b, 1-((1R,4R,5S)-2-(5H-pyrrolo[2,3-b]pyrazin-2-yl)-2-azabicyclo[2.2.1]heptan-5-yl)-1-methyl-3-(1-methyl-2-oxo-5-(trifluoromethyl)-1,2-dihydropyridin-3-yl)urea]
< 10 | CN(C)c1n[nH]c2ncc(N3CCC(N(C)C(=O)Nc4cc(C(F)(F)F)cn(C)c4=O)CC3)cc12 [Example I-46, 1-(1-(3-(dimethylamino)-1H-pyrazolo[3,4-b]pyridin-5-yl)piperidin-4-yl)-1-methyl-3-(1-methyl-2-oxo-5-(trifluoromethyl)-1,2-dihydropyridin-3-yl)urea]
10 to 50 | Cn1cc(C(F)(F)F)cc(NC(=O)N2CCCC23CCN(c2cnc4[nH]ccc4n2)CC3)c1=O [Example I-47, N-(1-methyl-2-oxo-5-(trifluoromethyl)-1,2-dihydropyridin-3-yl)-8-(5H-pyrrolo[2,3-b]pyrazin-2-yl)-1,8-diazaspiro[4.5]decane-1-carboxamide]
10 to 50 | CN(C)C(=O)Nc1cnc(N2CCC(N(C)C(=O)Nc3cc(C(F)(F)F)cn(C)c3=O)CC2)cn1 [Example I-48, 1,1-dimethyl-3-(5-(4-(1-methyl-3-(1-methyl-2-oxo-5-(trifluoromethyl)-1,2-dihydropyridin-3-yl)ureido)piperidin-1-yl)pyrazin-2-yl)urea]
10 to 50 | Cn1cc(C(F)(F)F)cc(NC(=O)N2CCCC23CCN(c2cnc4[nH]ncc4c2)CC3)c1=O [Example I-50, N-(1-methyl-2-oxo-5-(trifluoromethyl)-1,2-dihydropyridin-3-yl)-8-(1H-pyrazolo[3,4-b]pyridin-5-yl)-1,8-diazaspiro[4.5]decane-1-carboxamide]
10 to 50 | CN(C(=O)Nc1cc(C(F)(F)F)cn(C)c1=O)C1(C)CCN(c2cnc3[nH]ccc3n2)CC1 [Example I-51, 1-methyl-1-(4-methyl-1-(5H-pyrrolo[2,3-b]pyrazin-2-yl)piperidin-4-yl)-3-(1-methyl-2-oxo-5-(trifluoromethyl)-1,2-dihydropyridin-3-yl)urea]
50 to 1000 | Cn1cc(C(F)(F)F)cc(NC(=O)N2CCCC23CCN(c2cnc4[nH]cc(F)c4n2)CC3)c1=O [Example I-52, 8-(7-fluoro-5H-pyrrolo[2,3-b]pyrazin-2-yl)-N-(1-methyl-2-oxo-5-(trifluoromethyl)-1,2-dihydropyridin-3-yl)-1,8-diazaspiro[4.5]decane-1-carboxamide]
< 10 | CN(C(=O)Nc1cc(C(F)(F)F)cn(C)c1=O)C1CC2(C1)CN(c1cnc3[nH]ccc3n1)C2 [Example I-55, 1-(2-(5H-pyrrolo[2,3-b]pyrazin-2-yl)-2-azaspiro[3.3]heptan-6-yl)-1-methyl-3-(1-methyl-2-oxo-5-(trifluoromethyl)-1,2-dihydropyridin-3-yl)urea]
10 to 50 | CN(C(=O)Nc1cc(C(F)(F)F)cn(C)c1=O)C1(C)CCN(c2cnc3[nH]cc(F)c3n2)CC1 [Example I-56, 1-(1-(7-fluoro-5H-pyrrolo[2,3-b]pyrazin-2-yl)-4-methylpiperidin-4-yl)-1-methyl-3-(1-methyl-2-oxo-5-(trifluoromethyl)-1,2-dihydropyridin-3-yl)urea]
< 10 | CN(C(=O)Nc1cc(C(F)(F)F)cn(C)c1=O)C1CC2(C1)CN(c1cnc3[nH]ncc3c1)C2 [Example I-57, 1-(2-(1H-pyrazolo[3,4-b]pyridin-5-yl)-2-azaspiro[3.3]heptan-6-yl)-1-methyl-3-(1-methyl-2-oxo-5-(trifluoromethyl)-1,2-dihydropyridin-3-yl)urea]
< 10 | C[C@@H]1CN(c2cnc3[nH]ccc3n2)CC[C@@H]1N(C)C(=O)Nc1cc(C(F)(F)F)cn(C)c1=O [Example I-58-a, 1-methyl-1-((3R,4S)-3-methyl-1-(5H-pyrrolo[2,3-b]pyrazin-2-yl)piperidin-4-yl)-3-(1-methyl-2-oxo-5-(trifluoromethyl)-1,2-dihydropyridin-3-yl)urea]
< 10 | C[C@H]1CN(c2cnc3[nH]ccc3n2)CC[C@H]1N(C)C(=O)Nc1cc(C(F)(F)F)cn(C)c1=O [Example I-58-b, 1-methyl-1-((3S,4R)-3-methyl-1-(5H-pyrrolo[2,3-b]pyrazin-2-yl)piperidin-4-yl)-3-(1-methyl-2-oxo-5-(trifluoromethyl)-1,2-dihydropyridin-3-yl)urea]
< 10 | CN(C(=O)Nc1cc(C(F)(F)F)cn(C)c1=O)C1CCN(c2cnc3[nH]cc(C#N)c3n2)CC1 [Example I-59, 1-(1-(7-cyano-5H-pyrrolo[2,3-b]pyrazin-2-yl)piperidin-4-yl)-1-methyl-3-(1-methyl-2-oxo-5-(trifluoromethyl)-1,2-dihydropyridin-3-yl)urea]
< 10 | CN(C(=O)Nc1cc(C(F)(F)F)cn(C)c1=O)[C@@H]1CCN(c2cnc3[nH]ccc3n2)C[C@@H]1F [Example I-64-a, 1-((3S,4R)-3-fluoro-1-(5H-pyrrolo[2,3-b]pyrazin-2-yl)piperidin-4-yl)-1-methyl-3-(1-methyl-2-oxo-5-(trifluoromethyl)-1,2-dihydropyridin-3-yl)urea]
< 10 | CN(C(=O)Nc1cc(C(F)(F)F)cn(C)c1=O)[C@H]1CCN(c2cnc3[nH]ccc3n2)C[C@H]1F [Example I-64-b, 1-((3R,4S)-3-fluoro-1-(5HI-pyrrolo[2,3-b]pyrazin-2-yl)piperidin-4-yl)-1-methyl-3-(1-methyl-2-oxo-5-(trifluoromethyl)-1,2-dihydropyridin-3-yl)urea]
< 10 | Cn1cc(C(F)(F)F)cc(NC(=O)C2(C3CCN(c4cnc5[nH]cc(F)c5n4)CC3)CC2)c1=O [Example I-65, 1-(1-(7-fluoro-5H-pyrrolo[2,3-b]pyrazin-2-yl)piperidin-4-yl)-N-(1-methyl-2-oxo-5-(trifluoromethyl)-1,2-dihydropyridin-3-yl)cyclopropane-1-carboxamide]
< 10 | CN(C(=O)Nc1cc(C(F)(F)F)cn(C)c1=O)C1CCN(c2cnc3sncc3c2)CC1 [Example I-66, 1-(1-(isothiazolo[5,4-b]pyridin-5-yl)piperidin-4-yl)-1-methyl-3-(1-methyl-2-oxo-5-(trifluoromethyl)-1,2-dihydropyridin-3-yl)urea]
